Results on 56 compounds are retold here after PubChem BioAssay AID1508603 (National Center for Advancing Translational Sciences (NCATS), 2020).

Where only a bound is given, the exact number is not on record here.

A word on the half-life: it is the time in which the quantity being followed falls by half.

In this series the test system is human liver cytosol stability, half-life. The series can be described thus: NCATS Human Liver Cytosol Stability Profiling. As to conditions: higher = more stable. As to the method:
Assay submitter (PI): Pranav Shah Ph.D.
NIH Center for Advancing Translational Sciences
Over the last few decades, chemists have become skilled at designing compounds that avoid cytochrome P (CYP) 450 mediated metabolism. Typical screening assays are performed in liver microsomal fractions and it is possible to overlook the contribution of cytosolic enzymes until much later in the drug discovery process. Few data exist on cytosolic enzyme-mediated metabolism and no reliable tools are available to chemists to help design away from such liabilities. In this study, we screened 1450 compounds for liver cytosol-mediated metabolic stability and extracted transformation rules that might help medicinal chemists in optimizing compounds with these liabilities. […] Matched molecular pairs analysis was performed in conjunction with qualitative-structure activity relationship modeling to identify chemical structure transformations affecting cytosolic stability. The transformation rules were prospectively validated on the test set. In addition, selected rules were validated on a diverse chemical library and the resulting pairs were experimentally tested to confirm whether the identified transformations could be generalized. The validation results, comprising nearly 250 library compounds and corresponding half-life data, are made publicly available. The datasets were also used to generate in silico classification models, based on different molecular descriptors and machine learning methods, to predict cytosol-mediated liabilities. To the best of our knowledge, this is the first systematic in silico effort to address cytosolic enzyme-mediated liabilities (Shah 2020).
Shah, P., Siramshetty, V.B., Zakharov, A.V. et al. Predicting liver cytosol stability of small molecules. J Cheminform 12, 21 (2020). https://doi.org/10.1186/s13321-020-00426-7
Compounds are classified as unstable (t 1/2 < 30 min) or stable (t 1/2 > 30 min).
1. Shah, P. et al. An Automated High-Throughput Metabolic Stability Assay Using an Integrated High-Resolution Accurate Mass Method and Automated Data Analysis Software. Drug Metab Dispos 44, 1653-1661 (2016). PMID 27417180
In turn, `N#Cc1ccc(CN2C[C@@H](CO)[C@H](c3ccncc3)C2)cc1` registered a half-life of 107 min. As for `Fc1cccc(-c2cnc(Nc3cncnc3)c3c2CCO3)c1`, the figure is 9.6 min; as for `COc1cccc(-c2cn3c(n2)N(C(=O)c2cccs2)CCC3)c1`, above 120 min; as for `Cc1ccc(-c2noc([C@@H]3Cc4nc[nH]c4CN3Cc3cccc(C#N)c3)n2)cc1`, 63.4 min. Take `O=C(c1cccs1)N1CCC(Oc2cccc(F)c2)C1` (stereo unspecified): the half-life stood at 17.4 min. As for `CC(C)(C)c1coc([C@@H]2COCCN2Cc2ccc(C(=O)O)cc2)n1`, the figure is 113 min.

Turning to `O=C(c1cccs1)N1CCC(Oc2ccccc2)C1` (stereo unspecified), the half-life was 38.3 min. Turning to `Cc1noc(-c2cn(C3CCN(C(=O)c4cccc(F)c4)C3)nn2)n1` (stereo unspecified), the half-life is above 120 min. `Cc1nn2c(c1-c1ccccc1Oc1ccccc1)N(Cc1ccc(C(=O)O)cc1)CCC2` showed a half-life above 120 min.

For `N#Cc1ccc(CN2CCC(N3CCNC3=O)CC2)cc1`, the half-life amounted to 93.2 min. The compound `CC1(c2ccccc2)N(Cc2ccccc2)C(=O)OC12CCN(Cc1cccc(C#N)c1)CC2` (stereo unspecified) returned a half-life above 120 min. `COc1ccc(OC2CN(Cc3ccc(C#N)cc3)C2)cc1` had a half-life above 120 min. As for `O=C(c1cccc(F)c1)N1CCC(Oc2cccnc2)C1` (stereo unspecified), the figure is above 120 min; as for `CN1c2cc(C(=O)Nc3ccc(C#N)cc3)ccc2C(=O)N2CCCCC21` (stereo unspecified), above 120 min; as for `CN1CCN(C(=O)c2cc(-c3cccnc3)nc3c2cnn3C)CC1`, above 120 min. `O=C(O)c1ccc(CN2CCOC[C@H]2c2ncc(-c3ccc(F)cc3)[nH]2)cc1` came in with a half-life above 120 min. As for `COc1ccc(C(=O)N2CCCOCCNC(=O)CC2)cc1`, the figure is 70.1 min. The compound `Cc1nn2c(c1-c1ccccc1Oc1ccccc1)N(Cc1cccc(C#N)c1)CCC2` gave a half-life above 120 min. `CN1CCN(C(=O)Cc2cccn2-c2ccc(F)cc2)CC1` registered a half-life above 120 min.

`O=C(c1ccncc1)N1CCC(Oc2cccc(F)c2)C1` (stereo unspecified) gave a half-life above 120 min.

`N#Cc1ccc(CN2CCC(N3CCOC3=O)CC2)cc1`: the half-life was above 120 min.

`Cc1ccc(NC(=O)c2nc3sccn3c2-c2cccc(C#N)c2)cc1` returned a half-life of 17.4 min.

As for `N#Cc1cccc(-c2c(C(=O)N3CCCCC3)nc3sccn23)c1`, the half-life was 103 min. Consider `COc1cncc(Nc2ncc(-c3cccc(F)c3)c3c2OCC3)c1`, for which the half-life was 80.3 min. The compound `N#Cc1ccc(CN2CC(Oc3ccc(F)c(F)c3)C2)cc1` gave a half-life of 71.4 min.

For `O=C1COCCN1c1cc(-c2cccc(F)c2)cn2cncc12`, the half-life is above 120 min.

For the compound `N#Cc1cccc(CN2CC(COc3ccccc3)C3(C2)CN(c2ccccc2)C3)c1` (stereo unspecified), the half-life was found to be 41.6 min.

`N#Cc1ccc(C(=O)N2CCOC[C@H](Oc3cnccn3)C2)cc1` gave a half-life above 120 min. `CC(C)(C)c1coc([C@@H]2COCCN2Cc2cccc(C#N)c2)n1` displayed a half-life of 56.6 min. `O=C(c1cccnc1)N1CCC(Oc2cccc(F)c2)C1` (stereo unspecified) came in with a half-life above 120 min. `COc1ccc(CN2CCC3(CC2)CC(=O)c2ccccc2O3)cc1` registered a half-life above 120 min. `COCCOC1CCN(C(=O)Nc2cccc(F)c2)CC1` gave a half-life above 120 min.

Take `O=C(c1ccsc1)N1CCC(Oc2cccc(F)c2)C1` (stereo unspecified): the half-life was 82.6 min. For the compound `Fc1cccc(-c2noc(-c3nc(-c4ccncc4)no3)n2)c1`, the half-life is 26.4 min. As for `CC(C)CN1C(=O)c2cccn2CC1C(=O)N1CCN(C)CC1` (stereo unspecified), the figure is 107 min; as for `O=C(c1ccoc1)N1CCC(Oc2cccc(F)c2)C1` (stereo unspecified), 70.5 min; as for `N#Cc1cccc(CN2CC[C@H](c3nnc(-c4ccco4)o3)C2)c1`, above 120 min. Take `CNC(=O)[C@@H]1CN(C(=O)c2cccc(C#N)c2)C[C@H]1COC`: the half-life is 86.6 min. For `COc1ccc(CN2CCC(N3CCNC3=O)CC2)cc1`, the half-life was above 120 min. As for `Cc1ccccc1-c1[nH]nc2ncc(-c3cccc(F)c3)nc12`, the figure is 49 min; as for `CCN1CCN(C(=O)C2Cn3cccc3C(=O)N2CC(C)C)CC1` (stereo unspecified), above 120 min; as for `N#Cc1cccc(-c2cn3c(n2)N(C(=O)c2ccco2)CCC3)c1`, 36.7 min.

`N#Cc1cccc(CN2CC[C@H](c3nc4ccccc4[nH]3)C2)c1` gave a half-life above 120 min.

For the compound `CCN1CCN(C(=O)c2nc3sccn3c2-c2cccc(OC)c2)CC1`, the half-life was above 120 min. As to `O=C(Nc1ncc(-c2cccc(F)c2)c2c1OCC2)c1ccncc1`, the half-life was above 120 min. For the compound `Cc1cc2cc(-c3c(C)noc3C)nc(Nc3cccc(F)c3)c2o1`, the half-life was 8.2 min. As for `O=C(O)c1ccc(CN2CC(COc3ccccc3)C3(C2)CN(c2ccccc2)C3)cc1` (stereo unspecified), the half-life was above 120 min. In the case of `COc1ccc(CN2CC(Oc3ccc(OC)cc3)C2)cc1`, the half-life is above 120 min. For `N#Cc1cccc(-c2c(C(=O)N3CCOCC3)nc3sccn23)c1` the value was above 120 min. `CCN1CCN(C(=O)c2cc(-c3ccccc3OC)c3nncn3n2)CC1` returned a half-life above 120 min.

`Fc1cccc(-c2cnc([C@@H]3COCCN3Cc3cnc[nH]3)[nH]2)c1` gave a half-life of 59.3 min. For `COc1ccc(CN2CCC3(C2)NC(=O)c2ccccc2O3)cc1` (stereo unspecified) the value was above 120 min; for `O=C(N1CCN(S(=O)(=O)c2cccc(F)c2)CC1)N1CC2CC(C1)[C@H]1CCCC(=O)N1C2` (stereo partly specified), above 120 min; for `COc1ccc(CN2CCC(N3CCOC3=O)CC2)cc1`, above 120 min. Compound `O=C(O)c1ccc2c(c1)n(Cc1cccc(F)c1)c(=O)c1ccnn12` returned a half-life above 120 min. `O=C(c1ccoc1)N1CCC(Oc2ccccc2)C1` (stereo unspecified) came in with a half-life above 120 min.
